Experimental findings from the supplement of paper PMC11208160 are described below.
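Also: IS621 recombinase and bridge RNA in Escherichia coli cells.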

The nature of the data set: recombinant barcode read abundance after kanamycin selection (control-corrected) (log10(CPM+1)); higher = more efficient recombination; sequences stand for … in AGTGCAGAGAAAATCGGCCAGTTTTCTCTGCCTGCAGTCCGCATGCCGT…AGATTTATGCAGCGGACTGCCTTTCTCCCAAAGTGATAAACCGGACAGTATCATGGACCGGTTTTCCCGGTAATCCGTATTTGCAAGGTTGGTTTCACT; site = the 11-nt target. In outline: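 Recombination efficiency was calculated from barcode counts at recombinant junctions, normalized to counts per million, averaged and corrected by the control. Each value is given as log10(CPM+1). The constructs were Gibson-cloned oligos (promoter, target, barcode, J23119-driven first 104 bridge RNA bases) in a vector with the remaining 73 bp and a T7-inducible recombinase, co-electroporated into E. coli with a donor plasmid and plated in duplicate on chloramphenicol/ampicillin LB agar (control) or chloramphenicol/ampicillin/kanamycin with 0.1 mM IPTG.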
As to “GTATCTCCTTGGGTTCTAACCTGTTGCGG (site GTATCTCCTCC)”, the “recombinant barcode read abundance (log10)” value turned out to be 0.0723. For the sequence “GTATCTCCTTGGGTTCTAACCTGTTGCGG (site GTCTCACCTCC)”, the “recombinant barcode read abundance (log10)” value worked out at 0.0668. As to “GTATCTCCTTGGGTTCTAACCTGTTGCTT (site GTATCTCCTAA)”, the “recombinant barcode read abundance (log10)” value amounted to 0.321. As for “GTATCTCCTTGGGTTCTAACCTGTTGCTT (site GTATTTCCTAA)”, the figure is 0.136; as for “GTATGTGCTTGGGTTCTAACCTGTTGCAA (site CTATGTGCTTC)”, 0.0841; as for “GTATGTGCTTGGGTTCTAACCTGTTGCAA (site GTATGTGCTTT)”, 0.769.

“GTCAAACCTTGGGTTCTAACCTGTTGCTT (site GACAAACCTAG)”: the “recombinant barcode read abundance (log10)” value is 0.274.

Consider “GTCAAACCTTGGGTTCTAACCTGTTGCTT (site GTCAAACCTAA)”, for which the “recombinant barcode read abundance (log10)” value came to 0.46. Regarding “GTCAAAGCTTGGGTTCTAACCTGTTGCCA (site GTCAAAGCTTG)”, the “recombinant barcode read abundance (log10)” value was determined as 0.0767.

With “GTCAAAGCTTGGGTTCTAACCTGTTGCCA (site GTCACAGCTAG)”, the “recombinant barcode read abundance (log10)” value was determined as 0.407. For the sequence “GTCAACCCTTGGGTTCTAACCTGTTGCTG (site GTCAAACCTCA)”, the “recombinant barcode read abundance (log10)” value was 0.045. With “GTCAACCCTTGGGTTCTAACCTGTTGCTG (site GTCAACCCTCA)”, the “recombinant barcode read abundance (log10)” value was determined as 2.49.

On to “GTCAACCCTTGGGTTCTAACCTGTTGCTG (site GTCAAGCCTCA)”, for which the “recombinant barcode read abundance (log10)” value was 0.32. “GTCAACCCTTGGGTTCTAACCTGTTGCTG (site GTCAATCCTCA)”: the “recombinant barcode read abundance (log10)” value was found to be 0.145.

Regarding “GTCAATCCTTGGGTTCTAACCTGTTGCTG (site GTCAAACCTCA)”, the “recombinant barcode read abundance (log10)” value is 0.00666. Take “GTCAATCCTTGGGTTCTAACCTGTTGCTG (site GTCAACCCTCA)”: the “recombinant barcode read abundance (log10)” value was found to be 0.288. In the case of “GTCAATCCTTGGGTTCTAACCTGTTGCTG (site GTCAAGCCTCA)”, the “recombinant barcode read abundance (log10)” value is 0.193. “GTCAATCCTTGGGTTCTAACCTGTTGCTG (site GTCAATCCTCA)”: the “recombinant barcode read abundance (log10)” value was 1.49. In the case of “GTCACCGCTTGGGTTCTAACCTGTTGCCT (site GTAACCGCTAG)” it was 0.409; in that of “GTCACCGCTTGGGTTCTAACCTGTTGCCT (site GTCACCGCTAG)”, 2.08; in that of “GTCACCGCTTGGGTTCTAACCTGTTGCCT (site GTGACCGCTAG)”, 0.129. As for “GTCACCGCTTGGGTTCTAACCTGTTGCCT (site GTTACCGCTAG)”, the “recombinant barcode read abundance (log10)” value was 0.464. In the case of “GTCATGGCTTGGGTTCTAACCTGTTGCCT (site GTCAGGGCTAG)” it was 0.0945; in that of “GTCATGGCTTGGGTTCTAACCTGTTGCCT (site GTCATGGCTAG)”, 0.283. Turning to “GTCCACTCTTGGGTTCTAACCTGTTGCAC (site GTCCACCCTCT)”, the “recombinant barcode read abundance (log10)” value is 0.0658. “GTCCACTCTTGGGTTCTAACCTGTTGCAC (site GTCCACTCTGT)”: the “recombinant barcode read abundance (log10)” value stood at 2.21.

For “GTCCAGTCTTGGGTTCTAACCTGTTGCGT (site GTCCACTCTAA)”, the “recombinant barcode read abundance (log10)” value was found to be 0.0578. As for “GTCCAGTCTTGGGTTCTAACCTGTTGCGT (site GTCCAGTCTAC)”, the figure is 3.16; as for “GTCCATTCTTGGGTTCTAACCTGTTGCAT (site GGACATTCTAT)”, 0.101; as for “GTCCATTCTTGGGTTCTAACCTGTTGCAT (site GTCCATTCTAT)”, 1.56. Regarding “GTCCTATCTTGGGTTCTAACCTGTTGCCA (site ACGGATCCTAT)”, the “recombinant barcode read abundance (log10)” value was 0.0705. Consider “GTCCTATCTTGGGTTCTAACCTGTTGCCA (site GTCCTATCTTG)”, for which the “recombinant barcode read abundance (log10)” value is 0.66.
